These results are taken from patent US11311576B2, “Methods of use for CAR T cells” (Seattle Children's Hospital, priority 2018, dated 2022).

pKd: −log10 of the molar value.

For one experiment, the system named is MDA-MB-231 tumors. Description: EC17/E2-CAR T-cell therapy in NSG mice bearing MDA-MB-231 tumors. It counts as in vivo. The note with it: 10 million E2 CAR-T cells, EC17 500 nmol/kg days 2 and 10, versus no EC17. As for the experimental part: MDA-MB-231 tumor cells were grown in folate-deficient RPMI 1640 with 5-10% FBS at 37° C. in a 5% CO2 humidified atmosphere. MDA-MB-231 tumor cells were inoculated subcutaneously at 2.5×10^6 cells per animal. Only […] mice were inoculated and the remaining 22 mice were kept tumor-free.
EGFRt-sorted anti-FITC E2 scFv-CAR T cells were frozen in a T-cell freezing medium. Vials of frozen CAR-T cells were immediately stored at −80° C. The CAR-T cells were quickly thawed at 37° C., washed twice with PBS, and used for animal injection at 10 million viable EGFRt+E2 CAR-T cells (CD4/CD8 at ˜1:1) per animal. […]
Whole blood cell analysis: Plasma was removed from predetermined volumes of whole EDTA treated blood and RBCs were lysed with RBC lysis solution. […] Determination of the concentration of CAR T cells in each blood sample was calculated according to Invitrogen's instructions. CAR T cells were identified as human CD3ε+ EGFRt+ events and easily distinguished and counted using the Kaluza™ flow cytometry software. The number of CAR T cells in the circulation of each infused mouse was then represented on the graphs as the total number of CAR T cells per 100 μL of whole blood analyzed. Statistical significance was determined by utilizing an unpaired, two-tailed, students t30 test with significance set at p<0.05. […]

The next experiment relates to HOS-143b. Kind of experiment: Specific lysis at varying E/T ratios with 10 nM EC17, FR-negative cells. In kind it is cell-based, human. Particulars: 10 nM EC17, E2-CAR-T cells, 48 hours of co-culture. As for the experimental part:
After 24 hours of co-culture, supernatants were harvested to determine tumor cell killing. To study the kinetics of T cell activation and FR correlation in vitro (FIG. 60A, FIG. 60B, FIG. 60C, FIG. 60D, FIG. 60E), co-cultures were carried out in FR+/− cell lines at varying E/T ratios (1:27, 1:9, 1:3, 1:1, 3:1) in the continuous presence of 10 nM EC17. The kinetics of tumor cell killing were quantified after 16 and 48 hours of co-culture. Meanwhile, a portion of the supernatants was taken after 44 hours of co-culture for measurement of IFNg, IL-2 and TNFα. Using Promega's CytoTox 96® LDH assay kit, target cell killing was quantified and expressed as specific lysis (%) which was normalized to basal levels in the absence of EC17 at defined E/T ratios. The LEGENDplex™ human Th1 cytokine panel (BioLegend, San Diego, Calif.) was used to determine CAR-T cell derived cytokines.
Specific lysis (%) was quantified after 16 and 48 hours of co-culture, and Th1 cytokines (IFNg, TNFa) in culture media were measured after 44 hours of co-culture. […] It generally took a longer time (48 hours) and a higher E/T ratio (≥1:1) to see significant activity in the lowest FR-expressing OV90 cells (FIG. 60A). The high FR-expressing KB cells responded very slowly and also required a higher E/T ratio (≥1:3) and longer exposure time to cause significant cell death (FIG. 60B, left plot).

The subject of the next experiment is E2-CAR-T cells. Description: 3H-EC17 uptake by E2-CAR-T cells. It counts as binding, human. Particulars: read-out: Kd of 3H-EC17 (estimated); unsorted E2-CAR-T cells (~24% EGFRt+, ~95:5 CD8/CD4), 2 hour at room temperature. The source says: (calculated from the numbers of molecules bound per cell).
Principle Components of CAM Controlled CAR T Cell Therapy. The basic components of the CAR-T cell therapy involve FITC as the pseudo tumor antigen, the high affinity EC17 CAM (a CAM is equivalent to a bridge or the “compound” in this application), and a rationally designed anti-FITC CAR and CAR-modified T cells. The EC17 has already been tested in the clinic for immunotherapy and optical imaging purposes. To directly quantify its bispecific binding affinities, ^3H-EC17 was synthesized and radioligand binding assays were carried out on KB and CHO-β cell lines representing FRα+ and FRβ+ target cells, respectively, and on unsorted EGFRt CAR-T cells representing the effector cells.

As a reminder, the pKd is −log10 of the Kd, conventionally taken in molar units. In the case of `NC1=NC2N=CC(CNc3ccc(C(=O)N[C@@H](CCC(=O)NCCNC(=S)Nc4ccc(-c5c6ccc(=O)cc-6oc6cc(O)ccc56)c(C(=O)O)c4)C(=O)O)cc3)=NC2C(=O)N1` (stereo partly drawn) [EC17, FA-(g)-ethylenediamine-FITC], in the experiment on MDA-MB-231 tumors, the “cytokine levels (IL2, IFN-γ, IL-10) in plasma” value is listed as “all increased”. Further, the “specific lysis of FR-negative cells” value with HOS-143b is reported as “essentially unharmed”. Further, the pKd with E2-CAR-T cells is approximately 6.89.
